We go through three compounds from patent US20060286105A1, “Tgf-beta antagonists combined with renin-angiotensin-aldosteron-system antagonists for treating renal insufficiency” (priority 2003, published 2006).

Assay [1] deals with diabetic rats. Nature of the assay: Proteinuria, early phase treatment of diabetic nephropathy (Example 8). Type of assay: in vivo, rat. The settings on record: therapy weeks 27 to 52 after STZ, 1D11 0.5 mg/kg i.p. 3x/week, enalapril 15 mg/l drinking water, FIG. 7. Here is the method:
Male Sprague-Dawley rats with initial body weight of 250-275 g were studied. All animals were allowed free access to standard diet and tap water. Diabetes was induced by a single intravenous injection of streptozotocin (60 mg/kg body weight). The presence of diabetes was confirmed 2 days later by the measurement of the tail blood glucose level with a reflectance meter. Diabetic rats received daily evening injections of insulin in doses individually adjusted to maintain a blood glucose level between 200 and 450 mg/dl. Blood glucose levels were monitored at least once a week in all diabetic rats and occasionally in control animals for comparison.
Diabetic rats were divided into 3 groups (n=6 each): group 1 received a control antibody, 13C4; groups 2 and 3 received 1D11 (0.5 mg/kg i.p. three times a week) or enalapril (15 mg/l in the drinking water), respectively from 27 to 52 weeks; group 4 was normal rats.
(§1) Urinary excretion of proteins was measured in 24 hr urine samples collected in metabolic cages at baseline, 18, 27, 36, 45, and 52 weeks by the modified Coomassie blue G dye-binding assay for proteins.
The statistical analysis was performed using the nonparametric Kruskal-Wallis test for multiple comparisons.

Assay [2] deals with diabetic rats. Nature of the assay: Urinary albumin excretion by ELISA, early phase treatment (Example 8). As to conditions: weeks 27 to 52, at 52 weeks, mean ± SE. Type of assay: in vivo, rat. Here is the method:
Male Sprague-Dawley rats with initial body weight of 250-275 g were studied. All animals were allowed free access to standard diet and tap water. Diabetes was induced by a single intravenous injection of streptozotocin (60 mg/kg body weight). […] Blood glucose levels were monitored at least once a week in all diabetic rats and occasionally in control animals for comparison. Diabetic rats were divided into 3 groups (n=6 each): group 1 received a control antibody, 13C4; groups 2 and 3 received 1D11 (0.5 mg/kg i.p. three times a week) or enalapril (15 mg/l in the drinking water), respectively from 27 to 52 weeks; group 4 was normal rats. […] The statistical analysis was performed using the nonparametric Kruskal-Wallis test for multiple comparisons.

Assay [3] has as its system diabetic rats. Nature of the assay: Renal histology, early phase treatment (Example 8). The format is in vivo, rat. The settings on record: weeks 27 to 52, 52 weeks, mean ± SE. Here is the method: Male Sprague-Dawley rats with initial body weight of 250-275 g were studied. All animals were allowed free access to standard diet and tap water. Diabetes was induced by a single intravenous injection of streptozotocin (60 mg/kg body weight). […] Blood glucose levels were monitored at least once a week in all diabetic rats and occasionally in control animals for comparison. […] Renal morphology was assessed as glomerulosclerosis, interstitial inflammation and tubular damage. Specifically, the removed kidneys were fixed overnight in Dubosq-Brazil, dehydrated in alcohol, and embedded in paraffin. Kidney samples were sectioned at 3-μm intervals, and the sections were stained with Masson's trichrome, hematoxylin and eosin, or periodic-acid Schiff reagent (PAS stain). […] All renal biopsies were analyzed by the same pathologist who was unaware of the nature of the experimental groups. The statistical analysis was performed using the nonparametric Kruskal-Wallis test for multiple comparisons.

Assay [4] has as its system diabetic rats. Nature of the assay: Systolic blood pressure by tail cuff, early phase treatment (Example 8). Type of assay: in vivo, rat. The settings on record: mean ± SE. Here is the method: Male Sprague-Dawley rats with initial body weight of 250-275 g were studied. All animals were allowed free access to standard diet and tap water. Diabetes was induced by a single intravenous injection of streptozotocin (60 mg/kg body weight). […] Blood glucose levels were monitored at least once a week in all diabetic rats and occasionally in control animals for comparison. Diabetic rats were divided into 3 groups (n=6 each): group 1 received a control antibody, 13C4; groups 2 and 3 received 1D11 (0.5 mg/kg i.p. three times a week) or enalapril (15 mg/l in the drinking water), respectively from 27 to 52 weeks; group 4 was normal rats. Systolic blood pressure was measured every two months after diabetic induction by the tail cuff method. The statistical analysis was performed using the nonparametric Kruskal-Wallis test for multiple comparisons.

The test system of assay [5] is diabetic rats. The assay can be described thus: Serum creatinine, early phase treatment (Example 8). Type of assay: in vivo, rat. The settings on record: weeks 27 to 52, 52 weeks, mean ± SE. Here is the method: Male Sprague-Dawley rats with initial body weight of 250-275 g were studied. All animals were allowed free access to standard diet and tap water. Diabetes was induced by a single intravenous injection of streptozotocin (60 mg/kg body weight). […] Blood glucose levels were monitored at least once a week in all diabetic rats and occasionally in control animals for comparison. […] Serum creatinine was measured at the end of the study by autoanalyzer (CX5 Beckman). The statistical analysis was performed using the nonparametric Kruskal-Wallis test for multiple comparisons.

The test system of assay [6] is diabetic rats. Nature of the assay: Proteinuria, late phase treatment of diabetic nephropathy (Example 9). Type of assay: in vivo, rat. The settings on record: therapy weeks 52 to 61 after STZ, 1D11 0.5 mg/kg i.p. 3x/week, enalapril 15 mg/l drinking water, FIG. 8. Here is the method: as §1
Diabetic rats were kept as described in Example 8 and were divided into 4 groups (n=5-6 each) and given from 52 to 61 weeks after the diabetis induction the following: the irrelevant antibody 13C4; the anti-TGF-β antibody 1D11 (0.5 mg/kg i.p. three times a week); the ACE inhibitor enalapril (15 mg/l in the drinking water), or the combination of 1D11 and enalapril. Five normal rats were used as controls. Systolic blood pressure was measured every two months after diabetes induction. Urinary excretion of proteins was measured in 24 hour urine samples collected in metabolic cages at baseline, 18, 27, 36, 45, 52, and 61 weeks. All measurements and data analysis were performed as described in Example 8.

For assay [7], the system named is diabetic rats. The assay can be described thus: Urinary albumin excretion, late phase treatment (Example 9). The format is in vivo, rat. The settings on record: weeks 52 to 61, at 61 weeks, mean ± SE. Here is the method: Five normal rats were used as controls. Systolic blood pressure was measured every two months after diabetes induction. […] All measurements and data analysis were performed as described in Example 8.

The test system of assay [8] is diabetic rats. Nature of the assay: Renal histology, late phase treatment (Example 9). Type of assay: in vivo, rat. As to conditions: weeks 52 to 61, 61 weeks, mean ± SE. As to the method: Renal morphology was assessed as glomerulosclerosis, interstitial inflammation and tubular damage. Specifically, the removed kidneys were fixed overnight in Dubosq-Brazil, dehydrated in alcohol, and embedded in paraffin. Kidney samples were sectioned at 3-μm intervals, and the sections were stained with Masson's trichrome, hematoxylin and eosin, or periodic-acid Schiff reagent (PAS stain). […] All renal biopsies were analyzed by the same pathologist who was unaware of the nature of the experimental groups. […] Five normal rats were used as controls. Systolic blood pressure was measured every two months after diabetes induction. […] All measurements and data analysis were performed as described in Example 8.

The test system of assay [9] is diabetic rats. Nature of the assay: Systolic blood pressure, late phase treatment (Example 9). Type of assay: in vivo, rat. The settings on record: mean ± SE. Here is the method: Systolic blood pressure was measured every two months after diabetic induction by the tail cuff method. […] Five normal rats were used as controls. Systolic blood pressure was measured every two months after diabetes induction. […] All measurements and data analysis were performed as described in Example 8.

The test system of assay [10] is diabetic rats. Nature of the assay: Serum creatinine, late phase treatment (Example 9). The format is in vivo, rat. As to conditions: weeks 52 to 61, 61 weeks, mean ± SE. As to the method: Serum creatinine was measured at the end of the study by autoanalyzer (CX5 Beckman). […] Five normal rats were used as controls. Systolic blood pressure was measured every two months after diabetes induction. […] All measurements and data analysis were performed as described in Example 8.

For assay [11], the system named is diabetic rats. The assay can be described thus: Systolic blood pressure by tail plethysmography in diabetic rats (Example 3). Type of assay: in vivo, rat. The settings on record: uninephrectomized STZ-diabetic rats; treated months 4-8; antibody 0.5 mg/kg i.p. 3x/week, lisinopril 12.5 mg/l drinking water; FIG. 2. As to the method:
Male Sprague-Dawley rats with initial body weights of 250 to 300 g were used in this study. Animal care and treatment were conducted in accordance with the U.S. […] All animals were housed in a room in which the temperature was kept constant on a 12-hour dark/12-hour light cycle and allowed free access to standard diet containing 20% protein by weight and tap water. The animals were subjected to unilateral nephrectomy under anaesthesia one week prior to the induction of diabetes to accelerate the onset of renal disease. The animals were rendered diabetic by a single intravenous (i.v.) injection of streptozotocin (STZ, Zanosar, Upjohn, Kalamazoo, Mich.; 60 mg/kg body weight). Food and water consumption, weight gain and the blood glucose levels were monitored to determine the degree of diabetes. The blood was obtained from the tip of the tails and analyzed by a modified glucose dehydrogenase method. […] Four months, after the induction of diabetes, animals were divided into seven groups of eight (unless otherwise indicated), which were treated for the next four months as follows: Animals were treated as described in Example 1. Systolic blood pressure at the end of the treatment period was recorded by tail plethysmography in conscious rats as described in Pfeffer et al.

The subject of assay [12] is diabetic rats. Nature of the assay: Glomerular sclerosis, renal histology in diabetic rats (Example 4). The format is in vivo, rat. As to conditions: uninephrectomized STZ-diabetic rats; treated months 4-8; antibody 0.5 mg/kg i.p. 3x/week, lisinopril 12.5 mg/l drinking water; FIG. 3. Here is the method: Animals were treated as described in Example 1. At the end of the study, rat kidneys were harvested and fixed with 5% buffered formalin solution, embedded in paraffin, sectioned and stained with periodic acid-Schiff (PAS) for light microscopy analyses.
Glomerular diameters were measured and the degree of matrix expansion and glomerular injury was assessed on a minimum of 100 glomeruli/section. The degree of glomerulosclerosis was scored as previously described (Raij et al. (1984) Kidney Int., 26:137-143). The percentage of glomerular sclerosis was determined by an unbiased, trained pathologist who recorded pathologic changes using a 0-4 scale (score of 0 indicates no damage; 1+ indicates changes affecting less than 25% of the samples; 2+ indicates changes affecting 25- 50% of the sample; 3+, changes affecting 50-75% of the sample; 4+ changes affecting 75-100% of the sample).

The target in assay [13] is TGF-β. Nature of the assay: Antigen affinity and isoform specificity of anti-TGF-β antibodies. Type of assay: binding. From the text:
The epitopes for 1[…] al. (1998) J. Immunol., 142:1536-1541) and CAT192 have been mapped to the C-terminal portion of mature TGF-β.

As to `CCOC(=O)[C@H](CCc1ccccc1)N[C@@H](C)C(=O)N1CCC[C@H]1C(=O)O` [enalapril, 1-[N-[(S)-1-carboxy-3-phenylpropyl]-L-alanyl]-L-proline-1′-ethyl ester], the “proteinuria (in words)” value in assay [1] and in assay [6] was “similarly efficacious in reducing proteinuria” throughout. The values for the Urinary albumin excretion in [2] and in assay [7] were 4.70 ± 0.83*°# mg/day and 30.40 ± 15.08 mg/day, respectively. The “Interstitial inflammation (score)” value is 0.33 ± 0.21 score in [3] (graded 0 to 4+) and 0.60 ± 0.24 score in [8] (graded 0 to 4+). Also, the “Tubular damage (score)” value in assay [3] (graded 0 to 4+) is given as 0.50 ± 0.22 score; in assay [8] (graded 0 to 4+), 0.60 ± 0.24 score. In addition, the entries for the “Glomeruli with sclerotic changes” value in assay [3] and in [8] were 1.53 ± 0.32° % and 4.60 ± 2.19%, respectively. Besides, the Systolic blood pressure in [4] (early phase study, week 27, before treatment (baseline of group)) is given as 148.33 ± 2.47 mmHg; in assay [4] (early phase treatment from week 27, week 36), 127.50 ± 2.81**°° mmHg; in assay [4] (early phase treatment from week 27, week 45), 118.33 ± 2.47°° mmHg; in [4] (early phase treatment from week 27, week 52), 117.50 ± 2.14°° mmHg; in assay [9] (late phase study, week 36, before therapy (given weeks 52 to 61)), 158.33 ± 2.79 mmHg; in [9] (late phase study, week 52, start of therapy (given weeks 52 to 61)), 165.00 ± 2.89 mmHg. Further, the Systolic blood pressure in assay [9] (late phase treatment, weeks 52 to 61, week 61) was 135.00 ± 1.58**°° mmHg. Moreover, the Serum creatinine in assay [5] worked out at 0.49 ± 0.07 mg/dL; in [10], 0.56 ± 0.07 mg/dL.
With `NCCCC[C@H](N[C@@H](CCc1ccccc1)C(=O)O)C(=O)N1CCC[C@H]1C(=O)O` [lisinopril, 1-[N2-[(S)-1-carboxy-3-phenylpropyl]-L-lysyl]-L-proline], the “systolic blood pressure at end of treatment” value in assay [11] is “limited blood pressure increase to a similar extent as 1D11”. The “percentage of glomeruli with sclerotic changes (in words)” value in assay [12] was “limited the percentage of glomeruli with sclerosis to a similar degree as 1D 11”.
In the case of “CAT192: fully human monoclonal anti-TGF-β1 antibody generated by phage display, described in WO 00/66631”, in assay [13], the Kd is roughly 8.4 pM and the “TGF-β isoform binding specificity” value is given as “specifically binds TGF-β only”. In addition, the “systolic blood pressure at end of treatment” value in assay [11] is “displayed an anti-hypertensive effect”.
